What all share (assay type): cell-based
For experiment [1], the system named is C. albicans. Briefly: Minimal inhibitory concentration (MHK), microdilution test in Neopepton Dextrose Bouillon. The settings on record: Candida albicans, read-out: MHK. The source says:
(§1) Die minimale Hemmkonzentration (MHK), das heißt, diejenige Konzentration bei der das Wachstum der Pilze noch makroskopisch sichtbar gehemmt ist, wurde im Mitrkoverdünnungstest (Mikrodilutiontest in Neopepton Dextrose Boullion, siehe: "Comparison of two different techniques in primary micrological screening": Standard serial dilution test and microtitration test; W. Raether, M. Uphoff und G. Staut, mycosen, 27 (1984), p. 15 - 28) geprüft. Das Inokulum pro Weil betrug bei Candida albicans 10^3 cfu/ml und bei Microsporum canis 1,6 10^5 cfu/ml (cfu = colony forming units).
(§2) Zunächst wurde die minimale Hemmkonzentration eines jeden Kombinationspartners (Ciclopiroxolamin bzw. Nigericin oder Nigericinderivat) allein festgestellt (Cyclopyoxolamin: 2 u.g/ml; Nigericin und alle Nigericinderivate: >128 u.g/ml). Anschließend wurde die MHK für Ciclopiroxolamin in Anwesenheit von jeweils 64 µg/ml, 16 u.g/ml und 1 µg/ml eines Nigericinderivats geprüft, um festzustellen inwieweit der Zusatz des Nigericinderivats die Wirkung von Ciclopiroxolamin verstärken konnte.
On the technique in general: In broth dilution the organism is exposed to a series of concentrations in liquid medium.

For experiment [2], the system named is M. canis. The experiment is described as above. The note with it: Microsporum canis, read-out: MHK.
Description: as §1, §2

Experiment [3] relates to Microsporum Canis und Candida albicans. Briefly: Minimal inhibitory concentration (MHK), microdilution test, text statements not separated by test strain. The settings on record: each combination partner alone; test strain not specified; read-out: minimale Hemmkonzentration eines jeden Kombinationspartners allein.
Description: as §1, §2

Values after ≈ are worked out from the molar mass of the structure shown. Like-named read-outs stand apart in the source and are kept apart here.

In the case of `COC1CC(CC2CCC(C)C(C(C)C(=O)O)O2)OC2(OC(C)(C3CCC(C)(C4OC(C5OC(O)(COC(=O)CCOc6ccccc6)C(C)CC5C)CC4C)O3)CC2C)C1C` (stereo not shown) [Beispiel 20], the MIC in experiment [1] and in experiment [2] was 128 µg/mL (≈ 147 µM) throughout.
In the case of `COC1CC(CC2CCC(C)C(C(C)C(=O)O)O2)OC2(OC(C)(C3CCC(C)(C4OC(C5OC(O)(COC(=O)c6ccccc6)C(C)CC5C)CC4C)O3)CC2C)C1C` (stereo not shown) [Beispiel 18], the MIC in experiment [1] and in experiment [2] was 128 µg/mL (≈ 154 µM) in each case.
`CO[C@@H]1C[C@@H](C[C@H]2CC[C@H](C)[C@H]([C@@H](C)C(=O)O)O2)O[C@]2(O[C@](C)([C@H]3CC[C@@](C)([C@@H]4O[C@@H]([C@H]5O[C@@](O)(CO)[C@H](C)C[C@@H]5C)C[C@@H]4C)O3)C[C@H]2C)[C@@H]1C` [Nigericin, reference compound]: the MIC in experiment [1] (C. albicans, substance alone) stood at 128 µg/mL (≈ 177 µM); in experiment [2] (M. canis, substance alone), 128 µg/mL (≈ 177 µM).
`COC1CC(CC2CCC(C)C(C(C)C(=O)O)O2)OC2(OC(C)(C3CCC(C)(C4OC(C5OC(O)(COC(=O)CCC(=O)O)C(C)CC5C)CC4C)O3)CC2C)C1C` (stereo not shown) [Beispiel 17]: the MIC in experiment [1] and in experiment [2] was 128 µg/mL (≈ 155 µM) in each case.
Turning to `Cc1cc(C2CCCCC2)n(O)c(=O)c1` [Ciclopiroxolamin, Ethanolamin des 6-Cyclohexyl-1-Hydroxy-4-methyl-2(1H)-Pyridons, reference compound], the MIC in experiment [1] (C. albicans, substance alone) worked out at 2 µg/mL (≈ 9.65 µM); in experiment [2] (M. canis, substance alone) it was 2 µg/mL (≈ 9.65 µM); in experiment [3], 2 µg/mL.
`COC1CC(CC2CCC(C)C(C(C)C(=O)O)O2)OC2(OC(C)(C3CCC(C)(C4OC(C5OC(O)(COC(=O)Cc6ccccc6)C(C)CC5C)CC4C)O3)CC2C)C1C` (stereo not shown) [Beispiel 19]: the MIC in experiment [1] (C. albicans, substance alone) worked out at 128 µg/mL (≈ 152 µM); in experiment [2] (M. canis, substance alone) it was 128 µg/mL (≈ 152 µM).

The values above are taken from patent publication EP0358177A1, “Medicine with a synergistic antimycosic and antiviral activity” (HOECHST AKTIENGESELLSCHAFT, priority 1988, dated 1990).
